Experimental data reported in BindingDB's records for doi:10.7270/Q2MK6B9H (Nmmlsc, 2009).

Molecular target: Ras-related protein Rab-7a (Canis lupus familiaris, UniProt P18067)
Experiment: Rab7 wildtype GTP binding inhibitors, SAR follow-up, biochemical, dog Rab7, bead multiplex flow cytometry, Bodipy-FL-GTP, pyrazoline series (AID 2041)
Settings: not given

Sequence of Ras-related protein Rab-7a (P18067 whole entry): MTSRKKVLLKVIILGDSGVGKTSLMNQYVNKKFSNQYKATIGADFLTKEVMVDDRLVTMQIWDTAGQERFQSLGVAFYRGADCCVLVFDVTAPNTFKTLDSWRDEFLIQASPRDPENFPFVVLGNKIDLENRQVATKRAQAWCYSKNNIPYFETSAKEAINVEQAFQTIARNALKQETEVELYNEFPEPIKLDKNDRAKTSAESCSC

| EC50 | Compound |
| --- | --- |
| > 30 µM | COc1ccc(C2CC(c3cccc(C)c3)=NN2c2ccc(S(N)(=O)=O)cc2)cc1 (centres undefined) [UNM-0000306153] |
| > 30 µM | NS(=O)(=O)c1ccc(N2N=C(c3ccccc3)CC2c2cccc(Cl)c2)cc1 (centres undefined) [UNM-0000306161] |
| > 30 µM | COc1ccc(C2CC(c3ccccc3)=NN2c2ccc(S(N)(=O)=O)cc2)cc1OC (centres undefined) [UNM-0000305823] |
| > 30 µM | COc1ccc(C2CC(c3ccc(Cl)cc3)=NN2c2ccccc2)cc1OC (centres undefined) [UNM-0000305858] |
| > 30 µM | CN(C)c1ccc(C2CC(c3ccc(Cl)cc3)=NN2c2ccccc2)cc1 (centres undefined) [UNM-0000305847] |
| > 30 µM | NS(=O)(=O)c1ccc(N2N=C(c3ccccc3)CC2c2ccc(Br)cc2)cc1 (centres undefined) [UNM-0000306160] |
| > 30 µM | CN(C)c1ccc(C2CC(c3ccc(Br)cc3)=NN2c2ccccc2)cc1 (centres undefined) [UNM-0000305846] |
| > 30 µM | O=S(=O)(O)c1ccc(N2N=C(c3ccccc3)CC2c2ccccc2)cc1 (centres undefined) [UNM-0000305834] |
| 10.2 µM | COc1ccccc1N1N=C(c2ccccc2)CC1c1ccccc1 (centres undefined) [UNM-0000305855] |
| > 30 µM | COc1ccc(C2CC(c3ccc(Br)cc3)=NN2c2ccc(S(N)(=O)=O)cc2)cc1 (centres undefined) [UNM-0000306138] |
| > 30 µM | COc1ccc(C2CC(c3cccc(Br)c3)=NN2c2ccc(S(N)(=O)=O)cc2)cc1 (centres undefined) [UNM-0000306113] |
| > 30 µM | FC(F)(F)c1cccc(N2N=C(c3ccc(Cl)cc3)CC2c2ccccc2Cl)c1 (centres undefined) [UNM-0000305859] |
| > 30 µM | CN(C)c1ccc(C2CC(c3ccc(F)cc3)=NN2c2ccccc2)cc1 (centres undefined) [UNM-0000305866] |
| > 30 µM | COc1ccc(C2=NN(c3ccccc3)C(c3ccc(OC)c(OC)c3C(=O)O)C2)cc1 (centres undefined) [UNM-0000305848] |
| > 30 µM | O=[N+]([O-])c1cccc(C2C[C-](c3ccccc3)N=[N+]2c2ccccc2)c1 (centres undefined) [UNM-0000305857] |
| > 30 µM | COc1ccc(C2CC(c3ccc(Br)cc3)=NN2c2ccccc2Cl)cc1 (centres undefined) [UNM-0000305832] |
| > 30 µM | COc1ccc(C2CC(c3ccc(F)cc3)=NN2c2ccccc2)cc1OC (centres undefined) [UNM-0000305864] |
| > 30 µM | COc1ccc(C2CC(c3ccccc3)=NN2c2ccc(C(=O)O)cc2)cc1 (centres undefined) [UNM-0000306085] |
| > 30 µM | NS(=O)(=O)c1ccc(N2N=C(c3ccccc3)CC2c2cccc(Br)c2)cc1 (centres undefined) [UNM-0000306147] |
| > 30 µM | COc1ccc(C2CC(c3ccccc3F)=NN2c2ccc(S(N)(=O)=O)cc2)cc1 (centres undefined) [UNM-0000306110] |
| > 30 µM | COc1ccc(C2CC(c3ccccc3Br)=NN2c2ccc(S(N)(=O)=O)cc2)cc1 (centres undefined) [UNM-0000306112] |

The remaining lines, values behind:

| Compound | EC50 |
| --- | --- |
| Cc1ccc(-c2cc(C(F)(F)F)nn2-c2ccc(S(N)(=O)=O)cc2)cc1 [Celecoxib] | > 30 µM |
| COc1ccc(C2=NN(c3ccc(S(N)(=O)=O)cc3)C(c3ccc(OC)cc3)C2)cc1 (centres undefined) [4-[3,5-bis(4-methoxyphenyl)-3,4-dihydropyrazol-2-yl]benzenesulfonamide] | > 30 µM |
| COc1ccc(C2CC(c3ccsc3)=NN2c2ccc(S(N)(=O)=O)cc2)cc1 (centres undefined) [4-[3-(4-methoxyphenyl)-5-thiophen-3-yl-3,4-dihydropyrazol-2-yl]benzenesulfonamide] | > 30 µM |
| COc1ccc(C2CC(c3ccc(C)cc3)=NN2c2ccc(S(N)(=O)=O)cc2)cc1 (centres undefined) | > 30 µM |
| COc1ccc(C2CC(c3ccccc3)=NN2c2cccc(S(N)(=O)=O)c2)cc1 (centres undefined) [3-[3-(4-methoxyphenyl)-5-phenyl-3,4-dihydropyrazol-2-yl]benzenesulfonamide] | > 30 µM |
| CC(=O)Oc1ccc(C2=NN(c3ccccc3)C(c3ccccc3)C2)cc1 (centres undefined) | > 30 µM |
| COc1ccc(C2CC(C)=NN2c2ccc(S(N)(=O)=O)cc2)cc1 (centres undefined) [4-[3-(4-methoxyphenyl)-5-methyl-3,4-dihydropyrazol-2-yl]benzenesulfonamide] | > 30 µM |
| NS(=O)(=O)c1ccc(N2N=C(c3ccccc3)CC2c2ccc(Cl)cc2)cc1 (centres undefined) [4-[3-(4-chlorophenyl)-5-phenyl-3,4-dihydropyrazol-2-yl]benzenesulfonamide] | > 30 µM |
| COc1ccc(C2CC(c3cccnc3)=NN2c2ccc(S(N)(=O)=O)cc2)cc1 (centres undefined) | > 30 µM |
| FC(F)(F)c1ccccc1C1CC(c2ccc(Br)cc2)=NN1c1ccccc1 (centres undefined) [5-(4-bromophenyl)-2-phenyl-3-[2-(trifluoromethyl)phenyl]-3,4-dihydropyrazole] | > 30 µM |
| COc1ccc(C2CC(c3ccc(C(F)(F)F)cc3)=NN2c2ccc(S(N)(=O)=O)cc2)cc1 (centres undefined) [4-[3-(4-methoxyphenyl)-5-[4-(trifluoromethyl)phenyl]-3,4-dihydropyrazol-2-yl]benzenesulfonamide] | > 30 µM |
| COc1cccc(C2CC(c3ccccc3)=NN2c2ccc(S(N)(=O)=O)cc2)c1 (centres undefined) [4-[3-(3-methoxyphenyl)-5-phenyl-3,4-dihydropyrazol-2-yl]benzenesulfonamide] | > 30 µM |
| COc1ccc(C2C[C-](c3ccccc3)N=[N+]2c2ccc([N+](=O)[O-])cc2)cc1 (centres undefined) [3-(4-methoxyphenyl)-2-(4-nitrophenyl)-5-phenyl-3,4-dihydropyrazole] | > 30 µM |
| COc1ccc(C2CC(c3ccccc3C(F)(F)F)=NN2c2ccc(S(N)(=O)=O)cc2)cc1 (centres undefined) [KUC103474N] | > 30 µM |
| COc1ccc(C2CC(c3cccs3)=NN2c2ccc(S(N)(=O)=O)cc2)cc1 (centres undefined) [KUC103438N] | > 30 µM |
| COc1ccccc1C1CC(c2ccccc2)=NN1c1ccccc1 (centres undefined) | > 30 µM |
| Cc1ccccc1N1N=C(c2ccccc2)CC1c1ccc(N(C)C)cc1 (centres undefined) [N,N-dimethyl-4-[2-(2-methylphenyl)-5-phenyl-3,4-dihydropyrazol-3-yl]aniline] | > 30 µM |
| COc1ccc(C2CC(c3ccc(Cl)cc3)=NN2c2ccc(S(N)(=O)=O)cc2)cc1 (centres undefined) | > 30 µM |
| COc1ccc(C2CC(c3cccc(C(F)(F)F)c3)=NN2c2ccc(S(N)(=O)=O)cc2)cc1 (centres undefined) | > 30 µM |
| COc1ccccc1C1CC(c2ccccc2)=NN1c1ccc(S(N)(=O)=O)cc1 (centres undefined) [4-[3-(2-methoxyphenyl)-5-phenyl-3,4-dihydropyrazol-2-yl]benzenesulfonamide] | > 30 µM |
| COc1ccc(C2CC(c3ccccc3Cl)=NN2c2ccc(S(N)(=O)=O)cc2)cc1 (centres undefined) [4-[5-(2-chlorophenyl)-3-(4-methoxyphenyl)-3,4-dihydropyrazol-2-yl]benzenesulfonamide] | > 30 µM |
| COc1ccc(C2CC(C(C)(C)C)=NN2c2ccc(S(N)(=O)=O)cc2)cc1 (centres undefined) [KUC103450N] | > 30 µM |

| Compound | EC50 |
| --- | --- |
| COc1ccc(C2CC(c3ccccc3)=NN2c2ccc(Cl)c(C(=O)O)c2)cc1 (centres undefined) | > 30 µM |
| CCc1ccc(C2=NN(c3ccc(S(N)(=O)=O)cc3)C(c3ccc(F)cc3)C2)cc1 (centres undefined) | > 30 µM |
| COc1ccc(C2CC(c3ccccc3)=NN2c2ccc(Cl)c(C(=O)O)c2)cc1OC (centres undefined) [2-chloro-5-[3-(3,4-dimethoxyphenyl)-5-phenyl-3,4-dihydropyrazol-2-yl]benzoic acid] | > 30 µM |
| Clc1cccc(N2N=C(c3ccccc3)CC2c2ccccc2)c1 (centres undefined) | > 30 µM |
| COc1ccc(C2CC(C3CCCCC3)=NN2c2ccc(S(N)(=O)=O)cc2)cc1 (centres undefined) [4-[5-cyclohexyl-3-(4-methoxyphenyl)-3,4-dihydropyrazol-2-yl]benzenesulfonamide] | > 30 µM |
| Cc1cccc(C2CC(c3ccccc3)=NN2c2ccc(S(N)(=O)=O)cc2)c1 (centres undefined) | > 30 µM |
| Fc1ccccc1C1CC(c2ccc(Br)cc2)=NN1c1ccc(Br)cc1 (centres undefined) [2,5-bis(4-bromophenyl)-3-(2-fluorophenyl)-3,4-dihydropyrazole] | > 30 µM |
| COc1ccc(C2=NN(c3cccc(F)c3)C(c3ccc(Cl)cc3)C2)cc1 (centres undefined) [3-(4-chlorophenyl)-2-(3-fluorophenyl)-5-(4-methoxyphenyl)-3,4-dihydropyrazole] | > 30 µM |
| NS(=O)(=O)c1ccc(N2N=C(c3ccccc3)CC2c2ccccc2)cc1 (centres undefined) [4-(3,5-diphenyl-3,4-dihydropyrazol-2-yl)benzenesulfonamide] | > 30 µM |
| NS(=O)(=O)c1ccc(N2N=C(c3ccc(Cl)cc3)CC2c2ccccc2)cc1 (centres undefined) | > 30 µM |
| COc1ccc(C2CC(c3ccc(F)cc3)=NN2c2ccc(S(N)(=O)=O)cc2)cc1 (centres undefined) [4-[5-(4-fluorophenyl)-3-(4-methoxyphenyl)-3,4-dihydropyrazol-2-yl]benzenesulfonamide] | > 30 µM |
| COc1ccc(C2CC(c3ccc(N(C)C)cc3)=NN2c2ccc(S(N)(=O)=O)cc2)cc1 (centres undefined) [KUC103422N] | > 30 µM |
| CN(C)c1ccc(C2C[C-](c3ccccc3)N=[N+]2c2ccc([N+](=O)[O-])cc2)cc1 (centres undefined) | > 30 µM |
| COc1ccc(C2=NN(c3ccccc3)C(c3ccccc3C(F)(F)F)C2)cc1 (centres undefined) | > 30 µM |
| COc1ccc(C2CC(c3cccc(OC)c3)=NN2c2ccc(S(N)(=O)=O)cc2)cc1 (centres undefined) [4-[5-(3-methoxyphenyl)-3-(4-methoxyphenyl)-3,4-dihydropyrazol-2-yl]benzenesulfonamide] | > 30 µM |
| Brc1ccc(N2N=C(c3ccccc3)CC2c2ccccc2)cc1 (centres undefined) | > 30 µM |
| O=[N+]([O-])c1ccc([N+]2=N[C-](c3ccccc3)CC2c2ccccc2)cc1 (centres undefined) | > 30 µM |
| NS(=O)(=O)c1ccc(N2N=C(c3ccccc3)CC2c2ccccc2Cl)cc1 (centres undefined) [KUC103446N] | > 30 µM |
| O=[N+]([O-])c1cccc(C2C[C-](c3ccc(F)cc3)N=[N+]2c2ccccc2)c1 (centres undefined) [5-(4-fluorophenyl)-3-(3-nitrophenyl)-2-phenyl-3,4-dihydropyrazole] | > 30 µM |
| COc1ccc(C2CC(c3ccccc3OC)=NN2c2ccc(S(N)(=O)=O)cc2)cc1 (centres undefined) | > 30 µM |
| NS(=O)(=O)c1ccc(N2N=C(c3ccc(Br)cc3)CC2c2ccc(F)cc2)cc1 (centres undefined) [4-[5-(4-bromophenyl)-3-(4-fluorophenyl)-3,4-dihydropyrazol-2-yl]benzenesulfonamide] | > 30 µM |
| Fc1ccc(C2=NN(c3cccc(Br)c3)C(c3ccccc3)C2)cc1 (centres undefined) [2-(3-bromophenyl)-5-(4-fluorophenyl)-3-phenyl-3,4-dihydropyrazole] | > 30 µM |

Same assay, conditions: inactive by the depositor's call

| EC50 | Compound |
| --- | --- |
| 0.679 µM | COc1ccc(C2=NN(c3ccccc3)C(c3ccc(Cl)cc3)C2)cc1 (centres undefined) [UNM-0000305833] |
| 0.141 µM | COc1ccc(C2CC(c3cccc(Cl)c3)=NN2c2ccc(S(N)(=O)=O)cc2)cc1 (centres undefined) [UNM-0000306134] |

More lines, now with the values behind:

| Compound | EC50 |
| --- | --- |
| O=S(=O)(c1ccc(N2N=C(c3ccccc3)CC2c2ccccc2)cc1)C(F)F (centres undefined) | 0.508 µM |
| Clc1ccc(N2N=C(c3ccccc3)CC2c2ccccc2)cc1 (centres undefined) | 6.64 µM |
